These results are taken from patent US5885993A, “Remedy for pancreatitis” (Nippon Shinyaku Company, Limited, priority 1995, dated 1999).

The test system of one data set is Cn+St pancreatitis. The data set is described as follows: Antipancreatitis activity: severity of pancreatitis and wet weight of pancreas in Cn+St pancreatitis (cerulein plus water immersion stress). It is filed as in vivo, SD rats (female, 12-week-old). The conditions noted are these: for Wet weight of pancreas / Severity of pancreatitis: oral gavage 18 and 2 hours before first Cn dosing, mean ± S.E.; for Severity of pancreatitis: score. An excerpt: The antipancreatitis action of the compound of the invention was confirmed in a test using rats as described hereinafter. The test protocol used is the most popular of all of the test protocols available for the evaluation of therapeutic drugs for pancreatitis in animals. A high correlation has been reported to hold between the antipancreatitis effect found by this test and the clinical effect in man [Yamaguchi et al.: Association of stresses in the onset of pancreatitis, Shoukakika, 18(2), 186-196, 1994). Female 12-week-old SD rats were used in groups of 10 individuals. After 40 μg/kg of cerulein (Cn) was administered intraperitoneally, the animals were placed in stress cages and immersed down to the xiphoid in a constant-temperature bath at 23° C. One hour later, 40 μg/kg of Cn was administered i.p. again and the stress loading was continued. After 5 hours of stress loading, the animals were sacrificed and laparotomized and the severity of pancreatitis was scored in accordance with the evaluation criteria proposed by Yamaguchi et al. (Gastroenterology 98: 1682-1688, 1990). In addition, the pancreas was excised and its wet weight was determined. As the test compounds, compounds 1, 2, 3, and 4 were administered by oral gavage 18 and 2 hours before the first Cn dosing. As a control compound, irsogladine maleate was used. Statistical significance was tested by Wilcoxon rank sum test for the severity and by Dunnett test for the wet weight.

A short description of data set [1]: Effect on body weight gain. In kind it is in vivo, SD rats (male, 6-week-old). The conditions noted are these: 1000 mg/kg orally daily for 2 consecutive weeks. Here is the method: Compound 1 was administered orally to 6-week-old male SD rats (in groups of 5) daily to investigate its effect on body weight gain.
The test system of another data set is male mice (BALB/c). Description: Acute toxicity. In kind it is in vivo. The conditions noted are these: monitored for 1 week. How it is done:
Six-week-old male mice (BALB/c) fasted in advance was orally dosed with 1 g/kg or 500 mg/kg of the test compound and the time course of mortality was monitored for 1 week. The test compound was suspended in 0.5% aqueous methylcellulose solution and administered in the dose of 500 or 1,000 mg/20 ml/kg. […] The toxicity of the compound of the invention is, thus, extremely low.

In data set [2] the test system is cerulein-induced acute pancreatitis. The conditions noted are these: Proceedings of the 36th Congress of The Japanese Society of Gastroenterology, p.266; cited from earlier work.

As to `Nc1nc(-c2cc(Cl)ccc2Cl)nc(N(CCO)CCO)n1` [Compound 1, 2-Amino-4-[N,N-bis(2-hydroxyethyl)amino]-6-(2,5-dichlorophenyl)-1,3,5-triazine], the “Wet weight of pancreas” value in the data set on Cn+St pancreatitis (10 mg/kg) came to 9.33 ± 0.66 g/kg; with Cn+St pancreatitis (30 mg/kg), 7.13 ± 0.57 g/kg; in the data set on Cn+St pancreatitis (100 mg/kg) it was 5.65 ± 0.40 g/kg. Also, the results for the Severity of pancreatitis with Cn+St pancreatitis (10 mg/kg), in the data set with Cn+St pancreatitis (30 mg/kg) and with Cn+St pancreatitis (100 mg/kg) were 1.4 ± 0.22, 0.6 ± 0.22 and 0.3 ± 0.21, respectively. Besides, the “effect on body weight gain” value in data set [1] is recorded as “did not affect the body weight gain of rats”. The mortality entry in the data set with male mice (BALB/c) (1 g/kg oral) is given as “no death was encountered”.

As for `Cl.Nc1nc(-c2cc(Cl)ccc2Cl)nc(N2CCC[C@H]2CO)n1` [Compound 2, (S)-2-amino-4-(2,5-dichlorophenyl)-6-(2-hydroxymethyl-1-pyrrolidinyl)-1,3,5-triazine hydrochloride], the “Wet weight of pancreas” value in the data set on Cn+St pancreatitis (1 mg/kg) was 6.86 ± 0.41 g/kg; with Cn+St pancreatitis (3 mg/kg) it was 6.83 ± 0.48 g/kg; in the data set with Cn+St pancreatitis (10 mg/kg), 7.31 ± 0.64 g/kg; in the data set on Cn+St pancreatitis (30 mg/kg) it was 4.35 ± 0.32 g/kg. For the same compound, the Severity of pancreatitis in the data set on Cn+St pancreatitis (1 mg/kg) is reported as 1.3 ± 0.30; in the data set on Cn+St pancreatitis (3 mg/kg), 0.8 ± 0.29; in the data set on Cn+St pancreatitis (10 mg/kg), 0.4 ± 0.16; in the data set on Cn+St pancreatitis (30 mg/kg) it was 0.1 ± 0.03. Further, the mortality result with male mice (BALB/c) (500 mg/kg oral) is “no death was encountered”.

As to `Nc1nc(-c2cc(Cl)ccc2Cl)nc(N2C[C@H](O)C[C@H]2CO)n1` [Compound 3, 2-Amino-4-(2,5-dichlorophenyl)-6-[(2S,4R)-2-hydroxymethyl-4-hydroxy-1-pyrrolidinyl]-1,3,5-triazine], the “Wet weight of pancreas” value in the data set with Cn+St pancreatitis (3 mg/kg) is listed as 7.58 ± 0.36 g/kg; in the data set on Cn+St pancreatitis (10 mg/kg) it was 6.67 ± 0.37 g/kg; in the data set on Cn+St pancreatitis (30 mg/kg), 5.96 ± 0.70 g/kg. The Severity of pancreatitis with Cn+St pancreatitis (3 mg/kg) is listed as 1.4 ± 0.10; with Cn+St pancreatitis (10 mg/kg), 0.7 ± 0.08; in the data set on Cn+St pancreatitis (30 mg/kg), 0.6 ± 0.08. In addition, in the data set on male mice (BALB/c) (1 g/kg oral), the mortality result is listed as “no death was encountered”.

For the compound `Nc1nc(-c2cc(Cl)ccc2Cl)nc(N2CCOCC2)n1` [Compound 4, 2-Amino-4-(2,5-dichlorophenyl)-6-morpholino-1,3,5-triazine], the results for the “Wet weight of pancreas” value with Cn+St pancreatitis (10 mg/kg), with Cn+St pancreatitis (30 mg/kg) and in the data set on Cn+St pancreatitis (100 mg/kg) were 7.33 ± 0.23 g/kg, 6.18 ± 0.53 g/kg and 7.49 ± 0.47 g/kg, respectively. Besides, the Severity of pancreatitis was found to be 0.9 ± 0.28 in the data set on Cn+St pancreatitis (10 mg/kg), 0.5 ± 0.22 with Cn+St pancreatitis (30 mg/kg) and 0.5 ± 0.17 with Cn+St pancreatitis (100 mg/kg). For the same compound, in the data set with male mice (BALB/c) (1 g/kg oral), the mortality result is “no death was encountered”.

On to `Nc1nc(N)nc(-c2cc(Cl)ccc2Cl)n1.O=C(O)/C=C\C(=O)O` [irsogladine maleate, 2,4-diamino-6-(2,5-dichlorophenyl)-1,3,5-triazine maleate, reference compound], for which the “Wet weight of pancreas” value is 10.09 ± 0.51 g/kg in the data set with Cn+St pancreatitis (10 mg/kg), 8.52 ± 0.60 g/kg in the data set on Cn+St pancreatitis (30 mg/kg) and 7.14 ± 0.58 g/kg with Cn+St pancreatitis (100 mg/kg). In addition, the Severity of pancreatitis with Cn+St pancreatitis (10 mg/kg) is 2.2 ± 0.33; in the data set with Cn+St pancreatitis (30 mg/kg), 1.5 ± 0.27; in the data set on Cn+St pancreatitis (100 mg/kg) it was 0.4 ± 0.22. Moreover, in the data set with Cn+St pancreatitis (Rattus norvegicus, only at this dose (10, 30, 100 mg/kg tested), oral, read-out: dose showing a significant reducing effect on the severity of pancreatitis), the minimal effective dose came out at 100 mg/kg. In addition, in the data set with Cn+St pancreatitis (compound of the invention versus control compound irsogladine maleate), the “effect on wet weight (swelling) of pancreas relative to comparator, in words” value is given as “almost equivalent to the compound of the invention in the effect on wet weight of pancreas”. Also, in the data set with Cn+St pancreatitis (rat model, cerulein plus water immersion stress loading), the “inhibitory activity in Cn+St pancreatitis (in words)” value is “only moderate activity”. The “efficacy in Cn-induced acute pancreatitis (in words)” value in data set [2] is “proved efficacious”.
